In patent publication EP0290169A2, “Diamineplatinum complexes with phosphonocarboxylate and substituted phosphonocarboxylate ligands as antitumor agents” (ENGELHARD CORPORATION, priority 1987, dated 1988):

What was measured:
Sarcoma 180 ascites = assay: S180a screening (Sarcoma 180 ascites tumor model), increase in life span; format: in vivo, CFW mice; details: for Surv.: survivors on day of evaluation
Method: CFW mice, averaging 20 g, are innoculated on day zero with 0.2 mL of a freshly prepared saline suspension (0.15 M NaCI) containing 1 × 10^7 tumor cells/mL, or a total of 2 x 10^6 cells. On day I, the mice are injected with the test compound in the selected medium (usually water). Six mice are used per test dose, with six doses normally being run.
Also, on day one, two types of controls (6 mice/set are employed: (1) Normal (1 set): 0.5 mL of the solvent medium used for the test compound, and (2) Positive control (1 set): cis-[Pt(NH3)2Cl2] in saline at 8 mg/kg.
The effectiveness of a compound is measured in terms of the increase in life span (ILS) of the test animals relative to the controls calculated from the day of tumor inoculation (day zero). The day of evaluation is arbitrarily taken as that day corresponding to twice the mean life-span of the normal controls. This sets a practical upper limit of 100% on the ILS attainable. For calculation purposes, survivors on the day of evaluation are considered to have died on that day. The % ILS is formulated as: [formula]
ILS values above 50% represent activity. The positive controls must have an ILS of ≧ 50% for the test to be valid.

L1210 leukemia = assay: L1210 screening (L1210 leukemia tumor model), increase in life span; format: in vivo, Female CDF1 mice; details: for Surv.: survivors
Method: Female CDF1 mice (16-22 g) are injected with a suspension of 1 x 10^6 tumor cells in 0.5 mL of 0.15 M saline on day zero. On day one, the mice receive the test compound in 0.5 mL of the chosen medium (usually water). Six mice were used for each test dose, with six doses normally being run. Normal controls (six mice) receive tumor on day zero and 0.5 mL of the test medium on day one. Positive controls (six mice) receive tumor on day zero and 8 mg/kg cisplatin in 0.5 mL of 0.15 M saline on day one. All compound doses are adjusted for the actual average weight of the mice involved. Testing is terminated at three times the normal control mean life span. The percent increase in lifespan (ILS) is calculated as follows: %ILS = [(mean life span (test)/mean life span(control)-I]x100 A 25% ILS or greater indicates activity. The maximum possible ILS is 200%. The positive control must have an ILS of S 25% for the test to be considered valid.
The tumor line is maintained by transfer of 5 x 10^4- cells in 0.1 mL saline every seven days. DBA/2 (18-22 g) mice are employed for tumor transfers

[1] = dose 40.00 mg/kg on day 1, vehicle water
[2] = dose 80.00 mg/kg on day 1, vehicle water
[3] = dose 160.00 mg/kg on day 1, vehicle water
[4] = dose 5.00 mg/kg on day 1, vehicle water
[5] = dose 10.00 mg/kg on day 1, vehicle water
[6] = dose 20.00 mg/kg on day 1, vehicle water
[7] = dose 320.00 mg/kg on day 1, vehicle water
[8] = dose 5.00 mg/kg on day 1, vehicle water, pH7
[9] = dose 10.00 mg/kg on day 1, vehicle water, pH7
[10] = dose 20.00 mg/kg on day 1, vehicle water, pH7
[11] = dose 40.00 mg/kg on day 1, vehicle water, pH7
[12] = dose 80.00 mg/kg on day 1, vehicle water, pH7
[13] = dose 160.00 mg/kg on day 1, vehicle water, pH7

Row | Structure (SMILES) | %ILS (Sarcoma 180 ascites; [1]) [%] | Surv. (Sarcoma 180 ascites; [1]) | %ILS (Sarcoma 180 ascites; [2]) [%] | Surv. (Sarcoma 180 ascites; [2]) | %ILS (Sarcoma 180 ascites; [3]) [%] | Surv. (Sarcoma 180 ascites; [3]) | %ILS (L1210 leukemia; [5]) [%] | Surv. (L1210 leukemia; [5]) | %ILS (L1210 leukemia; [6]) [%] | Surv. (L1210 leukemia; [6]) | %ILS (L1210 leukemia; [1]) [%] | Surv. (L1210 leukemia; [1]) | %ILS (L1210 leukemia; [2]) [%] | Surv. (L1210 leukemia; [2]) | %ILS (L1210 leukemia; [3]) [%] | Surv. (L1210 leukemia; [3]) | %ILS (Sarcoma 180 ascites; [6]) [%] | Surv. (Sarcoma 180 ascites; [6]) | further results
1 | NC1CCCCC1N.O=C1[O][Pt][O]P(=O)([O-])C1c1ccccc1.[Na+] (mixture of isomers) [Ex 6, Na[Pt(trans-R,R-dach)(2-phosphonophenytacetate)]] | 24 | 0/ 6 | 88 | 2/ 6 | 102 | 5/ 6 | 6 | 0/ 6 | 26 | 0/ 6 | 47 | 0/ 6 | 53 | 0/ 6 | 76 | 0/ 6 | – | – | %ILS (L1210 leukemia; [4]): 2%; Surv. (L1210 leukemia; [4]): 0/ 6
2 | CC(N)CN.CCC1C(=O)[O][Pt][O]P1(=O)[O-].[Na+] (mixture of isomers) [Ex 8, Na[Pt(pn)(2-phosphonobutyrate)]] | 46 | 0/ 6 | 38 | 0/ 6 | 95 | 4/ 6 | -6 | 0/ 6 | -9 | 0/ 6 | 0 | 0/ 6 | -2 | 0/ 6 | 16 | 0/ 6 | 4 | 0/ 6 | %ILS (Sarcoma 180 ascites; [4]): 4%; Surv. (Sarcoma 180 ascites; [4]): 0/ 6; %ILS (Sarcoma 180 ascites; [5]): 19%; Surv. (Sarcoma 180 ascites; [5]): 0/ 6; %ILS (L1210 leukemia; [7]): -44%; Surv. (L1210 leukemia; [7]): 0/ 6
3 | CC(N)CN.CC1C(=O)[O][Pt][O]P1(=O)[O-].[Na+] (mixture of isomers) [Ex 12, Na[Pt(pn)(2-phosphonopropionate)]] | 24 | 0/ 6 | 40 | 0/ 6 | 53 | 1/ 6 | – | – | – | – | – | – | – | – | – | – | 20 | 0/ 6 | –
4 | N.N.O=C1[O][Pt][O]P(=O)([O-])C1c1ccccc1.[Na+] (racemic) [Ex 7, Na[cis-Pt(NHs)2(2-phosphonophenylacetate)]] | 26 | 0/ 6 | 71 | 2/ 6 | 28 | 0/ 6 | – | – | – | – | – | – | – | – | – | – | 14 | 0/ 6 | –
5 | CC(N)CN.O=C1CP(=O)(O)[O][Pt][O]1 (racemic) [Ex 10, H[Pt(pn)(phasphonoacetate)]] | 9 | 1/ 6 | -71 | 0/ 6 | -78 | 0/ 6 | 2 | 0/ 6 | -13 | 0/ 6 | -13 | 0/ 6 | -34 | 0/ 6 | -52 | 0/ 6 | 77 | 3/ 6 | %ILS (Sarcoma 180 ascites; [7]): -79%; Surv. (Sarcoma 180 ascites; [7]): 0/ 6; %ILS (L1210 leukemia; [4]): -5%; Surv. (L1210 leukemia; [4]): 0/ 6
6 | CCC1C(=O)[O][Pt][O]P1(=O)[O-].N.N.[Na+] (racemic) [Ex 14, Na[cis-Pt(NH3)2(2-phosphonobutyrate)]] | – | – | – | – | – | – | -10 | 0/ 6 | -8 | 0/ 6 | -15 | 0/ 6 | -5 | 0/ 6 | -67 | 0/ 6 | – | – | %ILS (L1210 leukemia; [7]): -80%; Surv. (L1210 leukemia; [7]): 0/ 6
7 | CC1C(=O)[O][Pt][O]P1(=O)[O-].N.N.[Na+] (racemic) [Ex 15, Na[cis-Pt(NH3)2(2-phosphonopropionate)]] | -7 | 0/ 6 | -80 | 0/ 6 | -80 | 0/ 6 | – | – | – | – | – | – | – | – | – | – | 1 | 0/ 6 | %ILS (Sarcoma 180 ascites; [5]): 16%; Surv. (Sarcoma 180 ascites; [5]): 1/ 6
8 | CCCC1C(=O)[O][Pt][O]P1(=O)[O-].N.N.[Na+] (racemic) [Ex 19, Na[cis-Pt(NH3)2(2-phosphonovalerate)]] | -85 | 0/ 6 | -95 | 0/ 6 | -95 | 0/ 6 | – | – | – | – | – | – | – | – | – | – | -74 | 0/ 6 | –
9 | CC(C)N.CC(C)N.O=C1CP(=O)([O-])[O][Pt][O]1.[Na+] [Ex 9, Na[cis-Pt(i-PrNH2)2(phosphonoacetate)]] | -2 | 0/ 6 | -4 | 0/ 6 | 15 | 0/ 6 | – | – | – | – | – | – | – | – | – | – | 1 | 0/ 6 | %ILS (Sarcoma 180 ascites; [7]): 17%; Surv. (Sarcoma 180 ascites; [7]): 0/ 6
10 | NCCN.O=C1[O][Pt][O]P1(=O)O [Ex 13, H[Pt(en)(phosphonoformate)]] | – | – | – | – | – | – | – | – | – | – | – | – | – | – | – | – | – | – | %ILS (Sarcoma 180 ascites; [8]): 9%; Surv. (Sarcoma 180 ascites; [8]): 0/ 6; %ILS (Sarcoma 180 ascites; [9]): 31%; Surv. (Sarcoma 180 ascites; [9]): 1/ 6; %ILS (Sarcoma 180 ascites; [10]): 63%; Surv. (Sarcoma 180 ascites; [10]): 1/ 6; %ILS (Sarcoma 180 ascites; [11]): 93%; Surv. (Sarcoma 180 ascites; [11]): 5/ 6; %ILS (Sarcoma 180 ascites; [12]): 58%; Surv. (Sarcoma 180 ascites; [12]): 2/ 6; %ILS (Sarcoma 180 ascites; [13]): -74%; Surv. (Sarcoma 180 ascites; [13]): 0/ 6
11 | NCCN.O=C1CP(=O)(O)[O][Pt][O]1 [Ex 16, H[Pt(en)(phosphonoacetate)]] | 64 | 3/ 6 | 84 | 4/ 6 | 85 | 3/ 6 | – | – | – | – | – | – | – | – | – | – | 29 | 1/ 6 | %ILS (Sarcoma 180 ascites; [4]): -2%; %ILS (Sarcoma 180 ascites; [8]): -3%; Surv. (Sarcoma 180 ascites; [8]): 0/ 6; Surv. (Sarcoma 180 ascites; [4]): 0/ 6; %ILS (Sarcoma 180 ascites; [5]): 3%; %ILS (Sarcoma 180 ascites; [9]): 2%; Surv. (Sarcoma 180 ascites; [9]): 0/ 6; Surv. (Sarcoma 180 ascites; [5]): 0/ 6; %ILS (Sarcoma 180 ascites; [10]): 14%; Surv. (Sarcoma 180 ascites; [10]): 0/ 6; %ILS (Sarcoma 180 ascites; [11]): 72%; Surv. (Sarcoma 180 ascites; [11]): 2/ 6; %ILS (Sarcoma 180 ascites; [12]): 93%; Surv. (Sarcoma 180 ascites; [12]): 4/ 6; %ILS (Sarcoma 180 ascites; [13]): -32%; Surv. (Sarcoma 180 ascites; [13]): 1/ 6
12 | N.N.O=C1CP(=O)([O-])[O][Pt][O]1.[Na+] [Ex 21, Na(cis-Pt(NH3)2(phosphonoacetate)]] | – | – | – | – | – | – | -10 | 0/ 6 | -5 | 0/ 6 | 13 | 0/ 6 | 12 | 0/ 6 | 10 | 0/ 6 | – | – | %ILS (L1210 leukemia; [7]): -80%; Surv. (L1210 leukemia; [7]): 0/ 6
